Among the data in patent US20140148476A1, “METHODS FOR TREATING OBESITY AND DISORDERS ASSOCIATED WITH HYPERLIPIDEMIA IN A MAMMAL” (AEGERION PHARMACEUTICALS, INC., priority 2009, published 2014) are adverse events, hepatic triglyceride levels and therapeutic effectiveness values, retold here.

Structures are written as SMILES. “Also recorded” adds a separate entry of the source. Like-named read-outs stand apart in the source and are kept apart here.

The conditions of data set [1]: 25 mg/day, some patients, monotherapy, cited from earlier work.
In a further data set the test system is DGAT −/−mice. Nature of the data set: Hepatic triglyceride levels in DGAT +/− and DGAT −/− mice dosed with AEGR-733. It counts as in vivo. The conditions noted are these: DGAT −/− mice treated with AEGR-733 compared to DGAT +/− mice treated with AEGR-733; oral gavage for four successive days, chow diet, euthanized approximately 6 hours after the last dose. How it is done:
DGAT +/−mice or DGAT −/−mice (Jackson Laboratory, Me., U.S.A.) were fed a chow diet ad libitum. Mice were dosed by oral gavage for four successive days with AEGR-733 or with vehicle control at about 9:00 AM. AEGR-733 was dissolved in M-pyrol and diluted to appropriate concentration in vehicle. Final vehicle composition was 10% M-pyrol, 80% water, 5% cremophore, and 5% ethanol. Dosing volume was 200 μl. The mice were euthanized approximately 6 hours after the last dose. Blood was obtained at time of sacrifice by orbital eye bleed and plasma was made for determination of total cholesterol (TC), high density lipoprotein cholesterol (HDL-C), triglyceride (TG) and non-HDL-C.

For data set [2] the following is noted: cited from earlier work.
Where [3] appears, read: clinical studies, dosages of 80 mg/day or greater.

On to `O=C(NC1CCN(CCCCC2(C(=O)NCC(F)(F)F)c3ccccc3-c3ccccc32)CC1)c1ccccc1-c1ccc(C(F)(F)F)cc1` [AEGR-733, N-(2,2,2-Trifluorethyl)-9-[4-[4-[[[4′-(trifluoromethyl)[1,1′biphenyl]-2-Yl]carbonyl]amino]-1-piperidinyl]butyl]9H-fluorene-9-carboxamide], for which the adverse events result is “gastrointestinal disorders, abnormalities in liver function and/or hepatic steatosis” in data set [1]; “gastrointestinal disturbances, abnormalities in liver function, and hepatic steatosis” in data set [1] (listed as BMS-201038). The hepatic triglyceride levels result in the data set with DGAT −/−mice is on record as “significantly reduced; also recorded: significantly lower”.

Take `Cc1cc(C)c2c3ccccc3n(Cc3ccc([C@@H](C(=O)N[C@H](CO)c4ccccc4)C4CCCC4)cc3)c2n1` [implitapide, (2S)-2-cyclopentyl-2-[4-[(2,4-dimethyl-9H-pyrido[2,3-b]indol-9-yl)methyl]phenyl]-N-[(1S)-2-hydroxy-1-phenylethyl]ethanamide]: the adverse events entry was “gastrointestinal disorders, abnormalities in liver function and/or hepatic steatosis” in data set [2] (80 mg/day); “gastrointestinal disorders, abnormalities in liver function and/or hepatic steatosis” in data set [2] (160 mg/day); “gastrointestinal disturbances, abnormalities in liver function, and hepatic steatosis” in data set [2] (setting [3]). In addition, the therapeutic effectiveness entry in data set [2] (setting [3]) was “therapeutically effective”.
